Read-outs that look alike come from different tables or passages of the source.
Target: T1, PscD (PscD-SD, Cache sensor domain of chemoreceptor PscD) (Pseudomonas syringae, UniProt A0ABY1U976)
T1 construct: gene CFBP3846_03581; sensor domain, Gln31-Trp188, N-terminal His6 tag
T1 sequence (A0ABY1U976 31-188): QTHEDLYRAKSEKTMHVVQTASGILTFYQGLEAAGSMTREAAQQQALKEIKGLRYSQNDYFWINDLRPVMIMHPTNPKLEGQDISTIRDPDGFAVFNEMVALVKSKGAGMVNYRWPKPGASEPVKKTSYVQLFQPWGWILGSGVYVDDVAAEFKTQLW
Parameters: fluorescence thermal shift (SYPRO Orange) screen of Biolog PM1/PM2 compounds, delta Tm
Conditions: Biolog plate compound, exact concentration unknown, binder
Text: We used high-throughput fluorescence thermal shift (FTS) assays (as described previously[16]) to screen for potential ligands of PscD-SD. FTS assays are based on the principle that ligands stabilise proteins upon binding, causing an increase in the melting temperature of the protein[22][23]. Binding can therefore be rapidly screened by measuring the difference in the temperature midpoint of unfolding (ΔTm) of a protein in the presence and absence of potential ligands. In our FTS assays, the Tm was measured by monitoring an increase in fluorescence of a dye with affinity for hydrophobic parts of the protein (i.e. SYPRO Orange), which are exposed as the protein unfolds. We screened the recombinant PscD-SD protein in FTS assays against the compounds in Biolog Phenotype Microarray (PM) plates 1 and 2 (Supplementary Tables 1 and 2). Each plate contains 95 different compounds (e.g., organic acids, sugars) and a water (no ligand) control. For use in FTS assays, the compounds were resuspended directly in water, thus generating a library of biologically relevant potential ligands. […] Fluorescent thermal shift (FTS) assays were conducted as reported previously. PscD-SD was screened for potential ligands against Biolog Phenotype Microarray (PM) plates 1 and 2 (Biolog, Hayward, CA, USA). For initial qualitative, high-throughput screening, ligands were prepared by dissolving Biolog PM compounds in 50 μL of water (each) to obtain a final concentration of approximately 10–20 mM (the exact concentrations vary from well-to-well). Screens were set up in Lightcycler 480 multiwell plates (Roche Diagnostics, Auckland, NZ) with 20 μM protein, a 5x concentration of SYPRO orange (Life Technologies, Carlsbad, CA, USA) and 5 μL of the test compound (i.e. resuspended Biolog ligands) added to each well. The plate was covered with Lightcycler 480 sealing film (Roche Diagnostics) and fluorescence signal was monitored as the temperature was increased from 20 °C to 80 °C at a rate of 1.2 °C.min^−1 in a Lightcycler 480 (Roche Diagnostics). Initial hits were further tested using known concentrations (0, 1, 2, 5 and 10 mM) of each potential ligand to confirm binding. The ligands were prepared as 10x stocks, 2 μL were added to each well, and the experiments were conducted as described above. The first derivative values (−dF/dt) from the raw fluorescence data were used to determine the melting temperature (Tm). Three biological replicates (from independently cultured and purified batches of protein) were performed for each plate screened.

Row | Structure (SMILES) | Δ Tm [°C] | Δ Tm (Δ Tm) [°C]
1 | CC[C@H](C)[C@H](N)C(=O)O [L-Isoleucine] | 0.08 ± 0.00 | –
2 | O=C1CC[C@@H](C(=O)O)N1 [L-Pyroglutamic Acid] | 0.08 ± 0.00 | –
3 | NCC(O)c1ccc(O)cc1 (racemic) [D,L-Octopamine] | 0.03 ± 0.03 | –
4 | CC(=O)N[C@@H](CO)[C@@H](O)[C@H](O)[C@H](O)CO [N-Acetyl-D-Glucosaminitol] | 0.08 ± 0.00 | –
5 | C=C(CC(=O)O)C(=O)O [Itaconic Acid] | -0.05 ± 0.33 | –
6 | NCC(=O)O [Glycine] | 0.05 ± 0.05 | –
7 | OCc1ccccc1O[C@@H]1O[C@H](CO)[C@@H](O)[C@H](O)[C@H]1O [Salicin] | 0.08 ± 0.00 | –
8 | N[C@@H](Cc1c[nH]cn1)C(=O)O [L-Histidine] | 0.00 ± 0.04 | –
9 | CC(C)[C@H](N)C(=O)O [L-Valine] | 0.03 ± 0.03 | –
10 | OC[C@H]1O[C@H](OC[C@H]2O[C@H](O[C@]3(CO)O[C@H](CO)[C@@H](O)[C@@H]3O)[C@H](O)[C@@H](O)[C@@H]2O)[C@H](O)[C@@H](O)[C@H]1O [D-Raffinose] | 0.00 ± 0.00 | –
11 | N#C[C@H](O[C@@H]1O[C@H](CO[C@@H]2O[C@H](CO)[C@@H](O)[C@H](O)[C@H]2O)[C@@H](O)[C@H](O)[C@H]1O)c1ccccc1 [Amygdalin] | 0.03 ± 0.03 | –
12 | C[N+](C)(C)CC(O)CC(=O)[O-] (racemic) [D,L-Carnitine] | -0.02 ± 0.02 | –
13 | CO[C@@H]1OC[C@@H](O)[C@H](O)[C@H]1O [β-Methyl-D-Xyloside] | 0.10 ± 0.11 | –
14 | CO[C@H]1O[C@H](CO)[C@@H](O)[C@H](O)[C@@H]1O [α-Methyl-D-Mannoside] | 0.05 ± 0.03 | –
15 | OC[C@H]1O[C@@](CO)(O[C@H]2O[C@H](CO)[C@@H](O)[C@H](O)[C@H]2O)[C@@H](O[C@H]2O[C@H](CO)[C@@H](O)[C@H](O)[C@H]2O)[C@@H]1O [D-Melezitose] | 0.03 ± 0.03 | –
16 | N[C@@H](Cc1ccccc1)C(=O)O [L-Phenylalanine] | 0.08 ± 0.00 | –
17 | CC(=O)N[C@H]1C(O)O[C@H](CO)[C@H](O)[C@@H]1O (stereo partly drawn) [N-Acetyl-D-Galactosamine] | 0.00 ± 0.00 | –
18 | OC[C@H]1O[C@@H]2O[C@H]3[C@H](O)[C@@H](O)[C@@H](O[C@H]4[C@H](O)[C@@H](O)[C@@H](O[C@H]5[C@H](O)[C@@H](O)[C@@H](O[C@H]6[C@H](O)[C@@H](O)[C@@H](O[C@H]7[C@H](O)[C@@H](O)[C@@H](O[C@H]8[C@H](O)[C@@H](O)[C@@H](O[C@H]9[C@H](O)[C@@H](O)[C@@H](O[C@H]1[C@H](O)[C@H]2O)O[C@@H]9CO)O[C@@H]8CO)O[C@@H]7CO)O[C@@H]6CO)O[C@@H]5CO)O[C@@H]4CO)O[C@@H]3CO [γ-Cyclodextrin] | 0.28 ± 0.07 | –
19 | OC[C@H]1O[C@@H]2O[C@H]3[C@H](O)[C@@H](O)[C@@H](O[C@H]4[C@H](O)[C@@H](O)[C@@H](O[C@H]5[C@H](O)[C@@H](O)[C@@H](O[C@H]6[C@H](O)[C@@H](O)[C@@H](O[C@H]7[C@H](O)[C@@H](O)[C@@H](O[C@H]8[C@H](O)[C@@H](O)[C@@H](O[C@H]1[C@H](O)[C@H]2O)O[C@@H]8CO)O[C@@H]7CO)O[C@@H]6CO)O[C@@H]5CO)O[C@@H]4CO)O[C@@H]3CO [β-Cyclodextrin] | 0.45 ± 0.0 | –
20 | NC(=O)CCC(=O)O [Succinamic Acid] | 0.18 ± 0.10 | –
21 | C[C@@H](O)[C@@H](C)O [2,3-Butanediol] | 0.05 ± 0.03 | –

Row | Structure (SMILES) | Δ Tm [°C] | Δ Tm (Δ Tm) [°C]
22 | OC[C@@H](O)[C@@H](O[C@H]1O[C@H](CO)[C@@H](O)[C@H](O)[C@H]1O)[C@H](O)[C@@H](O)CO [Maltitol] | 0.05 ± 0.05 | –
23 | C/C=C/C=C/C(=O)O [Sorbic Acid] | 0.65 ± 0.09 | –
24 | O=C(O)CCCO [γ-Hydroxy Butyric Acid] | 0.08 ± 0.00 | –
25 | CC(=O)N[C@H]1[C@H]([C@H](O)[C@H](O)CO)OC(O)(C(=O)O)C[C@@H]1O (stereo partly shown) [N-Acetyl-Neuraminic Acid] | 0.08 ± 0.00 | –
26 | O=C(O)C(=O)O [Oxalic Acid] | 0.03 ± 0.03 | –
27 | CSCC[C@H](N)C(=O)O [L-Methionine] | 0.43 ± 0.39 | –
28 | O=C(O)c1ccccc1O [2-Hydroxy Benzoic Acid] | 0.00 ± 0.04 | –
29 | CCC(C)N (stereo not shown) [Sec-Butylamine] | 0.00 ± 0.04 | –
30 | NCCCC[C@H](N)C(=O)O [L-Lysine] | 0.10 ± 0.11 | –
31 | OC[C@H]1O[C@@H](Oc2ccc(O)cc2)[C@H](O)[C@@H](O)[C@@H]1O [Arbutin] | 0.03 ± 0.05 | –
32 | OC[C@H]1O[C@@H]2O[C@H]3[C@H](O)[C@@H](O)[C@@H](O[C@H]4[C@H](O)[C@@H](O)[C@@H](O[C@H]5[C@H](O)[C@@H](O)[C@@H](O[C@H]6[C@H](O)[C@@H](O)[C@@H](O[C@H]7[C@H](O)[C@@H](O)[C@@H](O[C@H]1[C@H](O)[C@H]2O)O[C@@H]7CO)O[C@@H]6CO)O[C@@H]5CO)O[C@@H]4CO)O[C@@H]3CO [α-Cyclodextrin] | 0.08 ± 0.0 | –
33 | O=C(CO)[C@@H](O)[C@@H](O)[C@H](O)CO [D-Tagatose] | 0.00 ± 0.04 | –
34 | O=C(O)[C@H](O)[C@@H](O)C(=O)O [L-Tartaric Acid] | – | 0.33 ± 0.29
35 | C/C(=C/C(=O)O)C(=O)O [Citraconic Acid] | 0.08 ± 0.00 | –
36 | OC1OC[C@@H](O)[C@@H](O)[C@@H]1O (stereo partly drawn) [D-Arabinose] | 0.05 ± 0.05 | –
37 | OC[C@H]1O[C@@H](O)[C@H](O)[C@H](O)[C@@H]1O [β-D-Allose] | 0.08 ± 0.00 | –
38 | CC(O)(CC(=O)O)C(=O)O (stereo not shown) [Citramalic Acid] | 0.03 ± 0.03 | –
39 | OC[C@@H](O)[C@@H](O[C@@H]1O[C@H](CO)[C@H](O)[C@H](O)[C@H]1O)[C@H](O)[C@@H](O)CO [Lactitol] | 0.08 ± 0.00 | –
40 | OC[C@H](O)C(O)[C@@H](O)CO [L-Arabitol] | 0.03 ± 0.03 | –
41 | O=C(O)[C@H](O)[C@@H](O)[C@H](O)[C@H](O)CO[C@H]1O[C@H](CO)[C@H](O)[C@H](O)[C@H]1O [Melibionic Acid] | 0.08 ± 0.00 | –
42 | OC[C@@]12OC[C@@H](O1)[C@@H](O)[C@@H](O)[C@@H]2O [Sedoheptulosan] | 0.08 ± 0.00 | –

Row | Structure (SMILES) | Δ Tm [°C] | Δ Tm (Δ Tm) [°C]
43 | O=C(CO)CO [Dihydroxyacetone] | 0.35 ± 0.14 | –
44 | N=C(N)NCCC[C@H](N)C(=O)O [L-Arginine] | 0.03 ± 0.03 | –
45 | O=C(O)CC(=O)O [Malonic Acid] | 0.08 ± 0.00 | –
46 | O=C(O)[C@@H](O)[C@H](O)C(=O)O [D-Tartaric Acid] | – | 0.10 ± 0.11
47 | CC(O)CC(=O)O (stereo not drawn) [β-Hydroxy Butyric Acid] | 0.03 ± 0.05 | –
48 | COC(=O)[C@@H](C)O [D-Lactic Acid Methyl Ester] | 0.00 ± 0.00 | –
49 | N[C@H]1C(O)O[C@H](CO)[C@@H](O)[C@@H]1O (stereo partly drawn) [D-Glucosamine] | -0.25 ± 0.03 | –
50 | O=C(CO)[C@@H](O)[C@H](O)[C@@H](O)C(=O)O [5-keto-D-Gluconic Acid] | 0.10 ± 0.02 | –
51 | N[C@@H](CCO)C(=O)O [L-Homoserine] | 0.03 ± 0.03 | –
52 | O=C(O)[C@]1(O)C[C@@H](O)[C@@H](O)[C@H](O)C1 [Quinic Acid] | 0.00 ± 0.04 | –
53 | CC(N)=O [Acetamide] | 0.00 ± 0.00 | –
54 | CC(C)C[C@H](N)C(=O)O [L-Leucine] | 0.05 ± 0.03 | –
55 | C[C@@H](O)[C@H](O)[C@H](O)[C@@H](O)C=O [D-Fucose] | 0.10 ± 0.11 | –
56 | NCCCC(=O)O [γ-amino butyric acid] | 0.05 ± 0.03 | –
57 | O=C(O)[C@@H]1C[C@@H](O)CN1 [Hydroxy-L-Proline] | 0.03 ± 0.05 | –
58 | O=C(CO)[C@@H](O[C@H]1O[C@H](CO)[C@@H](O)[C@H](O)[C@H]1O)[C@H](O)[C@H](O)CO [Turanose] | 0.03 ± 0.03 | –
59 | O=C(O)CCCCCCCCC(=O)O [Sebacic Acid] | 0.48 ± 0.09 | –
60 | OC[C@H]1O[C@H](OC[C@H]2O[C@H](OC[C@H]3O[C@H](O[C@]4(CO)O[C@H](CO)[C@@H](O)[C@@H]4O)[C@H](O)[C@@H](O)[C@@H]3O)[C@H](O)[C@@H](O)[C@H]2O)[C@H](O)[C@@H](O)[C@H]1O [Stachyose] | 0.05 ± 0.05 | –
61 | O=CC[C@H](O)[C@H](O)CO [2-Deoxy-D-Ribose] | 0.66 ± 0.05 | –
